Test results from EPA's ToxRefDB 2.

What was measured:
rabbit [1] = settings: Prenatal developmental toxicity study, new zealand white, Oral, Gavage/Intubation, dose end: 18 GD
rat [2] = settings: Subchronic dermal toxicity, sprague dawley, Topical, dose end: 13 week, group: systemic, systemic / in life observation / body weight / body weight + systemic / in life observation / food consumption / food consumption + systemic…
rat [3] = settings: Prenatal developmental toxicity study, sprague dawley, Oral, Gavage/Intubation, dose end: 15 GD
dog [4] = settings: Chronic toxicity, beagle, Oral, Capsule, dose end: 52 week, group: systemic
mouse [5] = settings: Carcinogenicity, cd1, Oral, Feed, dose end: 78 week, group: systemic
rat [6] = settings: Prenatal developmental toxicity study, sprague dawley, Oral, Gavage/Intubation, dose end: 15 GD; remark: listed apart in the source
rabbit [7] = settings: Prenatal developmental toxicity study, new zealand white, Oral, Gavage/Intubation, dose end: 19 GD
rat [8] = settings: Combined chronic toxicity/carcinogenicity, other, Oral, Feed, dose end: 100 week, group: systemic
rat [9] = settings: Subchronic oral toxicity in rodents, other, [Not Specified], dose end: 13 week, group: systemic
rat [10] = settings: Multigenerational reproductive toxicity study, sprague dawley, Oral, Feed, dose end: 2 generation
rat [11] = settings: Multigenerational reproductive toxicity study, sprague dawley, Oral, Feed, dose end: 2 generation; remark: listed apart in the source
rabbit [12] = settings: Prenatal developmental toxicity study; new zealand white; Oral; Gavage/Intubation; dose end: 18 GD; group: maternal; systemic / in life observation / body weight / body weight gain + systemic / in life observation / clinical signs / anorexia + systemic / in…
dog [13] = settings: Chronic toxicity, beagle, Oral, Feed, dose end: 104 week, group: systemic
mouse [14] = settings: Carcinogenicity; cd1; Oral; Feed; dose end: 87 week; group: systemic; systemic / clinical chemistry / alanine aminotransferase (alt/sgpt) / alanine aminotransferase (alt/sgpt) + systemic / clinical chemistry / …
rat [15] = settings: Subchronic oral toxicity in rodents, sprague dawley, Diet, dose end: 13 week, group: systemic
rat [16] = settings: Prenatal developmental toxicity study, other, Oral, Gavage/Intubation, dose end: 15 GD
rat [17] = settings: Subchronic oral toxicity in rodents, other, Feed, dose end: 13 week, group: systemic, systemic / organ weight / liver / relative to body weight + systemic / organ weight / thymus / absolute + systemic / organ weight / thymus…
rat [18] = settings: Subchronic oral toxicity in rodents, long evans, Feed, dose end: 13 week, group: systemic, systemic / organ weight / liver / absolute + systemic / organ weight / liver / relative to body weight + systemic / pathology microscopic / …
rabbit [19] = settings: Prenatal developmental toxicity study; new zealand white; Oral; Gavage/Intubation; dose end: 19 GD; group: maternal; reproductive / reproductive performance / aborted / aborted + reproductive / reproductive performance / resorptions / resorptions + systemic…
[20] = group: developmental, developmental / developmental malformation / general / [other]
[21] = group: maternal, reproductive / reproductive performance / postimplantation loss / postimplantation loss + systemic / in life observation / food consumption…
[22] = group: developmental, developmental / developmental malformation / bone / fused
[23] = group: developmental, developmental / developmental malformation / bone / fused + developmental / developmental malformation / bone / [other] + developmental / …
[24] = group: maternal, systemic / in life observation / body weight / body weight gain + systemic / in life observation / clinical signs / salivation + …
[25] = systemic / clinical chemistry / alanine aminotransferase (alt/sgpt) / alanine aminotransferase (alt/sgpt) + systemic / clinical chemistry / …
[26] = systemic / in life observation / body weight / body weight gain
[27] = systemic / pathology microscopic / liver / vacuolization
[28] = systemic / pathology microscopic / liver / vacuolization + systemic / in life observation / body weight / body weight gain + systemic / …
[29] = group: developmental, developmental / developmental malformation / bone / full supernumerary
[30] = group: maternal, systemic / in life observation / body weight / body weight gain
[31] = group: developmental, developmental / developmental malformation / bone / irregular ossification + developmental / developmental malformation / bone / misshapen …
[32] = group: maternal, systemic / in life observation / body weight / body weight gain + systemic / in life observation / food consumption / food consumption + …
[33] = systemic / pathology gross / adrenal gland / enlarged
[34] = systemic / urinalysis / ph / ph
[35] = group: offspring, developmental / offspring survival late / viability index / viability index
[36] = group: offspring, developmental / offspring survival late / viability index / viability index + systemic / in life observation / body weight / offspring (pup…
[37] = group: parental, systemic / in life observation / body weight / body weight + systemic / in life observation / mortality / mortality + systemic / pathology …
[38] = group: reproductive, reproductive / offspring survival early / birth index / live birth index
[39] = group: offspring, systemic / in life observation / body weight / offspring (pup) weight + systemic / in life observation / body weight / offspring (pup) …
[40] = group: parental, systemic / pathology microscopic / kidney / hyperplasia + systemic / pathology microscopic / kidney / mineralization + systemic / pathology …
[41] = systemic / clinical chemistry / alkaline phosphatase (alp/alk) / alkaline phosphatase (alp/alk) + systemic / in life observation / body …
[42] = systemic / in life observation / body weight / body weight gain + systemic / organ weight / liver / absolute + systemic / organ weight / …
[43] = systemic / in life observation / clinical signs / anemia - microcytic + systemic / urinalysis / volume / volume + systemic / clinical …
[44] = group: developmental, developmental / developmental malformation / bone / bent + developmental / developmental malformation / bone / fused + developmental / …
[45] = group: maternal, systemic / in life observation / clinical signs / defecation + systemic / in life observation / clinical signs / defecation (diarrhea) + …

SMILES: [O-][n+]1ccccc1[S-].[O-][n+]1ccccc1[S-].[Zn+2] [Zinc pyrithione]
- LEL (rabbit [1]; [20]): 3 mg/kg/day
- LOAEL (rabbit [1]; [20]): > 3 mg/kg/day
- NEL (rabbit [1]; [20]): 1.5 mg/kg/day
- NOAEL (rabbit [1]; [20]): ≥ 3 mg/kg/day
- LEL (rabbit [1]; [21]): 1.5 mg/kg/day
- LOAEL (rabbit [1]; [21]): 1.5 mg/kg/day
- NEL (rabbit [1]; [21]): 0.5 mg/kg/day
- NOAEL (rabbit [1]; [21]): 0.5 mg/kg/day
- LEL (rat [2]): 1000 mg/kg/day
- LOAEL (rat [2]): 1000 mg/kg/day
- NEL (rat [2]): 100 mg/kg/day
- NOAEL (rat [2]): 100 mg/kg/day
- LEL (rat [3]; [22]): 3 mg/kg/day
- LOAEL (rat [3]; [22]): 3 mg/kg/day
- NEL (rat [3]; [23]): 0.75 mg/kg/day
- NOAEL (rat [3]; [23]): 0.75 mg/kg/day
- LOAEL (rat [3]; group: maternal, systemic / in life observation / body weight / body weight gain + systemic / in life observation / clinical signs / salivation): 3 mg/kg/day
- LEL (rat [3]; [24]): 3 mg/kg/day
- NEL (rat [3]; [24]): 0.75 mg/kg/day
- NOAEL (rat [3]; [24]): 0.75 mg/kg/day

SMILES: CC1(C)CC/C(=C\c2ccc(Cl)cc2)C1(O)Cn1cncn1 (configuration not stated) [Triticonazole]
- LOAEL (dog [4]; [25]): 150 mg/kg/day
- NOAEL (dog [4]; [25]): 25 mg/kg/day
- LEL (dog [4]; [26]): 2.5 mg/kg/day
- NEL (dog [4]; [26]): < 2.5 mg/kg/day
- NEL (mouse [5]; [27]): 17.4 mg/kg/day
- NOAEL (mouse [5]; [27]): 17.4 mg/kg/day
- LEL (mouse [5]; [28]): 202 mg/kg/day
- LOAEL (mouse [5]; [28]): 202 mg/kg/day
- LEL (rat [6]; [29]): 1000 mg/kg/day
- LOAEL (rat [6]; [29]): 1000 mg/kg/day
- NEL (rat [6]; [29]): 200 mg/kg/day
- NOAEL (rat [6]; [29]): 200 mg/kg/day
- LEL (rat [6]; [30]): 1000 mg/kg/day
- LOAEL (rat [6]; [30]): 1000 mg/kg/day
- NEL (rat [6]; [30]): 200 mg/kg/day
- NOAEL (rat [6]; [30]): 200 mg/kg/day
- LEL (rabbit [7]; [31]): 75 mg/kg/day
- LOAEL (rabbit [7]; [31]): 75 mg/kg/day
- NEL (rabbit [7]; [31]): 50 mg/kg/day
- NOAEL (rabbit [7]; [31]): 50 mg/kg/day
- LEL (rabbit [7]; [32]): 50 mg/kg/day
- LOAEL (rabbit [7]; [32]): 50 mg/kg/day
- NEL (rabbit [7]; [32]): 25 mg/kg/day
- NOAEL (rabbit [7]; [32]): 25 mg/kg/day
- LEL (rat [8]; [33]): 0.2 mg/kg/day
- NEL (rat [8]; [33]): < 0.2 mg/kg/day
- LOAEL (rat [8]; systemic / pathology microscopic / adrenal gland / inflammation + systemic / in life observation / body weight / body weight + systemic / in…): 287 mg/kg/day
- NOAEL (rat [8]; systemic / pathology microscopic / adrenal gland / inflammation + systemic / pathology microscopic / adrenal gland / atypia nuclear): 38.3 mg/kg/day
- LOAEL (rat [9]; systemic / pathology microscopic / adrenal gland / vacuolization): 19.8 mg/kg/day
- NOAEL (rat [9]; systemic / pathology microscopic / adrenal gland / vacuolization + systemic / clinical chemistry / alkaline phosphatase (alp/alk) / alkaline…): 2 mg/kg/day
- LEL (rat [9]; [34]): 2.2 mg/kg/day
- NEL (rat [9]; [34]): < 2.2 mg/kg/day
- LEL (rat [10]; [35]): 0.25 mg/kg/day
- NEL (rat [10]; [35]): < 0.25 mg/kg/day
- LOAEL (rat [10]; [36]): 250 mg/kg/day
- NOAEL (rat [10]; [36]): 37.5 mg/kg/day
- LOAEL (rat [10]; [37]): 250 mg/kg/day
- NOAEL (rat [10]; [37]): 37.5 mg/kg/day
- NEL (rat [10]; group: parental, systemic / in life observation / body weight / body weight + systemic / pathology microscopic / adrenal gland / vacuolization + systemic / …): 1.25 mg/kg/day
- LEL (rat [10]; group: parental, systemic / organ weight / adrenal gland / absolute): 37.5 mg/kg/day
- LEL (rat [10]; [38]): 0.25 mg/kg/day
- NEL (rat [10]; [38]): < 0.25 mg/kg/day
- LOAEL (rat [10]; group: reproductive, reproductive / reproductive performance / fertility / fertility): 250 mg/kg/day
- NOAEL (rat [10]; group: reproductive, reproductive / reproductive performance / fertility / fertility + reproductive / offspring survival early / birth index / live birth index…): 37.5 mg/kg/day

SMILES: CCOc1cc(Oc2ccc(C(F)(F)F)cc2Cl)ccc1[N+](=O)[O-] [Oxyfluorfen]
- LEL (rat [11]; [39]): 146 mg/kg/day
- LOAEL (rat [11]; [39]): 146 mg/kg/day
- NEL (rat [11]; [39]): 36.4 mg/kg/day
- NOAEL (rat [11]; [39]): 36.4 mg/kg/day
- LEL (rat [11]; [40]): 120 mg/kg/day
- LOAEL (rat [11]; [40]): 120 mg/kg/day
- NEL (rat [11]; [40]): 30.9 mg/kg/day
- NOAEL (rat [11]; [40]): 30.9 mg/kg/day
- LEL (rat [11]; [38]): 146 mg/kg/day
- LOAEL (rat [11]; [38]): 146 mg/kg/day
- NEL (rat [11]; [38]): 36.4 mg/kg/day
- NOAEL (rat [11]; [38]): 36.4 mg/kg/day
- LEL (rabbit [12]): 30 mg/kg/day
- LOAEL (rabbit [12]): 30 mg/kg/day
- NEL (rabbit [12]): 10 mg/kg/day
- NOAEL (rabbit [12]): 10 mg/kg/day
- LOAEL (dog [13]; [41]): 18.5 mg/kg/day
- NOAEL (dog [13]; [41]): 3.1 mg/kg/day
- LEL (dog [13]; [42]): 3 mg/kg/day
- NEL (dog [13]; [42]): < 3 mg/kg/day
- LEL (mouse [14]): 33 mg/kg/day
- LOAEL (mouse [14]): 33 mg/kg/day
- NEL (mouse [14]): 3 mg/kg/day
- NOAEL (mouse [14]): 3 mg/kg/day
- LEL (rat [15]; systemic / hematology / mean corpuscular (cell) volume (mcv) / mean corpuscular (cell) volume (mcv) + systemic / hematology / mean …): 144 mg/kg/day
- LOAEL (rat [15]; systemic / in life observation / clinical signs / anemia - microcytic + systemic / urinalysis / volume / volume): 585 mg/kg/day
- NEL (rat [15]; [43]): 46.7 mg/kg/day
- NOAEL (rat [15]; [43]): 144 mg/kg/day
- LEL (rat [16]; [44]): 183 mg/kg/day
- LOAEL (rat [16]; [44]): 183 mg/kg/day
- NEL (rat [16]; [44]): 18 mg/kg/day
- NOAEL (rat [16]; [44]): 18 mg/kg/day
- LEL (rat [16]; [45]): 183 mg/kg/day
- LOAEL (rat [16]; [45]): 183 mg/kg/day
- NEL (rat [16]; [45]): 18 mg/kg/day
- NOAEL (rat [16]; [45]): 18 mg/kg/day
- LEL (rat [17]): 71 mg/kg/day
- LOAEL (rat [17]): 71 mg/kg/day
- NEL (rat [17]): 14 mg/kg/day
- NOAEL (rat [17]): 14 mg/kg/day
- LEL (rat [18]): 51.4 mg/kg/day
- LOAEL (rat [18]): 51.4 mg/kg/day
- NEL (rat [18]): < 51.4 mg/kg/day
- NOAEL (rat [18]): < 51.4 mg/kg/day
- LEL (rabbit [19]): 90 mg/kg/day
- LOAEL (rabbit [19]): 90 mg/kg/day
- NEL (rabbit [19]): 30 mg/kg/day
- NOAEL (rabbit [19]): 30 mg/kg/day
